Values of other authors in patent US20090131498A1, “Enantioselective Synthesis of Merrilactone and Its Analogs” (priority 2005, published 2009).

Tested on: neurite growth
Settings: described by Fukuyama et al. (ref. 3)

For `C[C@@]12COC(=O)[C@]1(C)C1O[C@]3(C)[C@@H](O)C[C@]24OC(=O)C[C@]143` (stereo partly shown) [merrilactone A, Merrilactone A], which “activity in a neurite growth assay” value is on record?
The value was “promising activity”.
